Source: article PMC6946862 (Molecular carcinogenesis, 2019)
pIC50: −log10 of the molar value.

Target: NAE1 (APP-BP1/UBA3, NEDD8-activating enzyme E1 regulatory subunit) (Homo sapiens, UniProt Q13564)
Test: in vitro NEDD8 initiation conjugation assay
Format: biochemical

Chain of NAE1 (APP-BP1/UBA3, NEDD8-activating enzyme E1 regulatory subunit) (Q13564 2-534): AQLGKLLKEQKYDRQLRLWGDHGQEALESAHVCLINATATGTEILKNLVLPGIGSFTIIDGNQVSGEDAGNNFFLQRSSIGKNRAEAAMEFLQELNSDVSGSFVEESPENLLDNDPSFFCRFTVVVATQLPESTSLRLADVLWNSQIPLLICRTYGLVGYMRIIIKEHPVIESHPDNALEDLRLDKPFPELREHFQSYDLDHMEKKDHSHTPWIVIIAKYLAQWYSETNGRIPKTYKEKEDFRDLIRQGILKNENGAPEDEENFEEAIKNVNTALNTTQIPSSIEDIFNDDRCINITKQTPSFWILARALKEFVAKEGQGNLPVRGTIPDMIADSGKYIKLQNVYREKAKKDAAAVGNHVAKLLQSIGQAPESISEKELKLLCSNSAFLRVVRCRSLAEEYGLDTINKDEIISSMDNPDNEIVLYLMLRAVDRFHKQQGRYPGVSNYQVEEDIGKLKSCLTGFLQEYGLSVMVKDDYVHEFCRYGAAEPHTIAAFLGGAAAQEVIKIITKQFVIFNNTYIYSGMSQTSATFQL
Chain of NAE1 (APP-BP1/UBA3, NEDD8-activating enzyme E1 regulatory subunit) (Q8TBC4 2-463 partner): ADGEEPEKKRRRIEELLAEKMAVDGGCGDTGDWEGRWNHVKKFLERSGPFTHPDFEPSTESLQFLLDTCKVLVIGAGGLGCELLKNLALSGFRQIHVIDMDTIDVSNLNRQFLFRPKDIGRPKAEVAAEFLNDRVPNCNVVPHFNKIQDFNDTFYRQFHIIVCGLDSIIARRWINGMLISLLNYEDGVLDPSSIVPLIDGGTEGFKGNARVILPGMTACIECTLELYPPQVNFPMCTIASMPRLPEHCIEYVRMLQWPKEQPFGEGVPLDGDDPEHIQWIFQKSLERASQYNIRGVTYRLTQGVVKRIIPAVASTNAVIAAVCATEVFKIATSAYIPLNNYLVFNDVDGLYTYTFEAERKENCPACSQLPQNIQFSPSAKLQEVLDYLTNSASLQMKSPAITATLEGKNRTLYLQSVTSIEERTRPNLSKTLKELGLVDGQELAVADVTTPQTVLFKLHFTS
Chain of NAE1 (APP-BP1/UBA3, NEDD8-activating enzyme E1 regulatory subunit) (P61081 whole entry partner): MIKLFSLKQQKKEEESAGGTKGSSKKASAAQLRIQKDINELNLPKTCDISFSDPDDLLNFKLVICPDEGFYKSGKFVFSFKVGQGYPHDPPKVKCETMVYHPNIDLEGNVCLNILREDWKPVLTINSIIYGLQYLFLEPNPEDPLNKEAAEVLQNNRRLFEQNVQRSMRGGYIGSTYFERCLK
Chain of NAE1 (APP-BP1/UBA3, NEDD8-activating enzyme E1 regulatory subunit) (Q15843 1-76 partner): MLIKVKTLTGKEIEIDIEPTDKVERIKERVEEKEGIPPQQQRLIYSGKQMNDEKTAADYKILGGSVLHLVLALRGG

pIC50: ~4.99
Compound: CC(C)=CCc1c(O)c(CC=C(C)C)c2oc3c(O)ccc(O)c3c(=O)c2c1O [Gartanin]
